The values that follow come from patent US12643912B2, “Macrocyclic compounds, a process for their preparation and pharmaceutical compositions containing them” (LES LABORATOIRES SERVIER, priority 2020, dated 2026).

Assay [1] deals with Nrf2 (Keap1-NRF2 nuclear translocation). The experiment in a line: U2OS translocation assay (PathHunter U2OS Keap1-NRF2 Nuclear Translocation Cell Line). Type of assay: cell-based. Summed up: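 PathHunter U2OS line expressing Nrf2-enzyme-donor fusion and nuclear acceptor enzyme, 7 500 cells/well in Opti-MEM, 1% FBS. Compounds incubated 3 h at 37° C. Luminescence after 60 min with detection reagent, normalized between 1% DMSO and 10 μM andrographolide.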

The target in another assay is T1, Keap1 (A321-C624) (h) (Homo sapiens, UniProt Q14145).
T1 construct: His-Thromb-KEAP1(A321-C624) acquired from Novalix (batch PU-P01) was immobilized covalently by amine coupling; His tag (N); thrombin cleavage site (Thromb) (N); purchased Novalix batch PU-P01
T1 sequence (Q14145 321-624): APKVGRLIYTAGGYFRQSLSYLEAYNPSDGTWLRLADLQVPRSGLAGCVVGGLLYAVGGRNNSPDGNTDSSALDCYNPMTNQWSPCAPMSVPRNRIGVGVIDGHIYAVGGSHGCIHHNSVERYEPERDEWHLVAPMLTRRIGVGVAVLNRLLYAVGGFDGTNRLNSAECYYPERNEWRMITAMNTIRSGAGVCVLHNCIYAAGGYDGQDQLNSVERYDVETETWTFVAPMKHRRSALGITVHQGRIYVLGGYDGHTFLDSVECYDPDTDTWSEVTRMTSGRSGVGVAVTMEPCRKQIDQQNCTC
The experiment in a line: Surface Plasmon Resonance binding assay to Kelch domain of KEAP1. Particulars: Biacore T200, 25° C., immobilized His-Thromb-KEAP1(A321-C624), single cycle kinetics, KD=kd/ka from 1:1 fit; read-out: Keap1 (A321-C624) (h) direct/SPR (KD). How it is done:
EXAMPLE 85: SURFACE PLASMON RESONANCE
Binding assay to Kelch domain of KEAP1 was performed by Surface Plasmon Resonance (SPR) on a Biacore T200 (GE Healthcare) at 25° C. using CM5 chip. His-Thromb-KEAP1(A321-C624) acquired from Novalix (batch PU-P01) was immobilized covalently by amine coupling using standard wizard protocol, at a concentration of 20 μg/mL in sodium acetate pH 5.5. The ligand was captured until 1250 RU was reached. Amine blank is used as the reference flow cell. Binding of analyte to the ligand was monitored in real time with associations of 180 seconds and a dissociation of 720 seconds. Association (ka) and dissociation (kd) rates were fitted with a simple 1:1 kinetic interaction model using Biacore T200 Evaluation Software (GE Healthcare). The equilibrium constant (KD=kd/ka) was calculated from these fitted parameters. […] The Biacore binding assay was performed with a flowrate of 50 μL/min using a running buffer of 10 mM HEPES (pH 7.4), 150 mM NaCl, 3 mM EDTA, 1 mM TCEP, 0.05% P20,5% DMSO. Double subtraction was used by subtracting both reference flow cell and previous blank cycle (with running buffer). Solvent correction was applied to correct DMSO bulk effect.

The mark [2] stands for this setting: read-out: CELLULAR U2OS EC50, U2OS Keap1-NRF2 nuclear translocation cells, 3 h incubation, luminescence, normalized between 1% DMSO and 10 μM andrographolide.
[3] abbreviates: Homo sapiens, U2OS, 3 h, read-out: CELLULAR U2OS EC50 (nM), U2OS Keap1-NRF2 nuclear translocation cells, 3 h incubation, luminescence, normalized between 1% DMSO and 10 μM andrographolide.

Where two headings read alike, the source gives them in different places.

One may read the EC50 as the concentration needed to bring the measured effect to its halfway point.

`Cc1ccc2cc1CN1Cc3cc(cc(F)c3OS1(=O)=O)OCCCCn1nnc3c(C)c(ccc31)C2CC(=O)O` (single isomer, unassigned) [Example 17a, [24-Fluoro-4,31-dimethyl-27,27-dioxo-21,26-dioxa-27λ^6-thia-1,14,15,16-tetraazahexacyclo[20.5.3.1^3,70.1^9,130.0^12,160.0^25,29]dotriaconta-3(32),4,6,9(31),10,12,14,22,24,29-decaen-8-yl]acetic acid]: the EC50 in assay [1] (setting [2]) worked out at 1660 nM. The Kd on Keap1 (A321-C624) (h) was 25.7 nM.
Consider `Cc1ccc2cc1CN1Cc3cc(cc(F)c3OS1(=O)=O)OCCCCn1nnc3c(C)c(ccc31)C2CC(=O)O` (single isomer, unassigned) [Example 17b, [24-Fluoro-4,31-dimethyl-27,27-dioxo-21,26-dioxa-27λ^6-thia-1,14,15,16-tetraazahexacyclo[20.5.3.1^3,70.1^9,130.0^12,160.0^25,29]dotriaconta-3(32),4,6,9(31),10,12,14,22,24,29-decaen-8-yl]acetic acid], for which the EC50 in assay [1] (setting [2]) came to 89 nM. Moreover, the Kd on Keap1 (A321-C624) (h) came to 5.55 nM.
Regarding `Cc1c(F)cc2cc1CN1Cc3cc(ccc3OS1(=O)=O)OCCCCn1nnc3c(C)c(ccc31)C2CC(=O)O` (single isomer, unassigned) [Example 18a, [5-Fluoro-4,31-dimethyl-27,27-dioxo-21,26-dioxa-27λ^6-thia-1,14,15,16-tetraazahexacyclo[20.5.3.1^3,70.1^9,130.0^12,160.0^25,29]dotriaconta-3(32),4,6,9(31),10,12,14,22,24,29-decaen-8-yl]acetic acid], the concentration for a half-maximal effect (EC50) in assay [1] (setting [2]) came out at 1140 nM. In addition, on Keap1 (A321-C624) (h), the Kd came to 3.67 nM.
For `Cc1c(F)cc2cc1CN1Cc3cc(ccc3OS1(=O)=O)OCCCCn1nnc3c(C)c(ccc31)C2CC(=O)O` (single isomer, unassigned) [Example 18b, [5-Fluoro-4,31-dimethyl-27,27-dioxo-21,26-dioxa-27λ^6-thia-1,14,15,16-tetraazahexacyclo[20.5.3.1^3,70.1^9,130.0^12,160.0^25,29]dotriaconta-3(32),4,6,9(31),10,12,14,22,24,29-decaen-8-yl]acetic acid] the same measures were 91.3 nM and 1.01 nM.
The corresponding values for `Cc1ccc2cc1CN1Cc3cc(c(Cl)cc3OS1(=O)=O)OCCCCn1nnc3c(C)c(ccc31)C2CC(=O)O` (single isomer, unassigned) [Example 22a, [23-Chloro-4,31-dimethyl-27,27-dioxo-21,26-dioxa-27λ^6-thia-1,14,15,16-tetraazahexacyclo[20.5.3.1^3,70.1^9,130.0^12,160.0^25,29]dotriaconta-3(32),4,6,9(31),10,12,14,22,24,29-decaen-8-yl]acetic acid] are 17.2 nM and 0.631 nM.
For `Cc1ccc2cc1CN1Cc3cc(c(Cl)cc3OS1(=O)=O)OCCCCn1nnc3c(C)c(ccc31)C2CC(=O)O` (single isomer, unassigned) [Example 22b, [23-Chloro-4,31-dimethyl-27,27-dioxo-21,26-dioxa-27λ^6-thia-1,14,15,16-tetraazahexacyclo[20.5.3.1^3,70.1^9,130.0^12,160.0^25,29]dotriaconta-3(32),4,6,9(31),10,12,14,22,24,29-decaen-8-yl]acetic acid] the same measures were 111 nM and 2.11 nM.
`COCCC1CCOc2ccc3c(c2)CN([C@H](C)c2cc(ccc2C)[C@H](CC(=O)O)c2ccc4c(nnn4C1)c2C)S(=O)(=O)O3` (single isomer, unassigned) [Example 24a]: in assay [1] (setting [2]), the EC50 came out at 7.28 nM. Moreover, the Kd at Keap1 (A321-C624) (h) was 1.1 nM.
The corresponding values for `COCCC1CCOc2ccc3c(c2)CN([C@H](C)c2cc(ccc2C)[C@H](CC(=O)O)c2ccc4c(nnn4C1)c2C)S(=O)(=O)O3` (single isomer, unassigned) [Example 24b] are 2.45 nM and 1.23 nM.
With `COCCC1CCOc2ccc3c(c2)CN([C@H](C)c2cc(ccc2C)[C@@H](CC(=O)O)c2ccc4c(nnn4C1)c2C)S(=O)(=O)O3` (single isomer, unassigned) [Example 24c], the EC50 in assay [1] (setting [3]) was determined as 60 nM. In addition, the Kd on Keap1 (A321-C624) (h) amounted to 5 nM.
With `COCCC1CCOc2ccc3c(c2)CN([C@H](C)c2cc(ccc2C)[C@@H](CC(=O)O)c2ccc4c(nnn4C1)c2C)S(=O)(=O)O3` (single isomer, unassigned) [Example 24d], the EC50 in assay [1] (setting [2]) worked out at 36.4 nM. Also, on Keap1 (A321-C624) (h), the Kd worked out at 4.32 nM.
The corresponding values for `COc1cc2c3cc1OCCCCn1nnc4c(C)c(ccc41)C(CC(=O)O)c1ccc(C)c(c1)CN(C3)S(=O)(=O)O2` (single isomer, unassigned) [Example 25a, [23-Methoxy-4,31-dimethyl-27,27-dioxo-21,26-dioxa-27λ^6-thia-1,14,15,16-tetraazahexacyclo[20.5.3.1^3,70.1^9,130.0^12,160.0^25,29]dotriaconta-3(32),4,6,9(31),10,12,14,22,24,29-decaen-8-yl]acetic acid] are 14 nM and 0.562 nM.
For `COc1cc2c3cc1OCCCCn1nnc4c(C)c(ccc41)C(CC(=O)O)c1ccc(C)c(c1)CN(C3)S(=O)(=O)O2` (single isomer, unassigned) [Example 25b, [23-Methoxy-4,31-dimethyl-27,27-dioxo-21,26-dioxa-27λ^6-thia-1,14,15,16-tetraazahexacyclo[20.5.3.1^3,70.1^9,130.0^12,160.0^25,29]dotriaconta-3(32),4,6,9(31),10,12,14,22,24,29-decaen-8-yl]acetic acid] the same measures were 56.8 nM and 1.16 nM.
Consider `Cc1ccc2cc1CN1Cc3cc(c(F)cc3OS1(=O)=O)OCCCCn1nnc3c(C)c(ccc31)C2CC(=O)O` (single isomer, unassigned) [Example 32a, [23-Fluoro-4,31-dimethyl-27,27-dioxo-21,26-dioxa-27λ^6-thia-1,14,15,16-tetraazahexacyclo[20.5.3.1^3,70.1^9,130.0^12,160.0^25,29]dotriaconta-3(32),4,6,9(31),10,12,14,22,24,29-decaen-8-yl]acetic acid], for which the EC50 in assay [1] (setting [2]) was found to be 20 nM. The Kd on Keap1 (A321-C624) (h) came out at 0.645 nM.
For `Cc1ccc2cc1CN1Cc3cc(c(F)cc3OS1(=O)=O)OCCCCn1nnc3c(C)c(ccc31)C2CC(=O)O` (single isomer, unassigned) [Example 32b, [23-Fluoro-4,31-dimethyl-27,27-dioxo-21,26-dioxa-27λ^6-thia-1,14,15,16-tetraazahexacyclo[20.5.3.1^3,70.1^9,130.0^12,160.0^25,29]dotriaconta-3(32),4,6,9(31),10,12,14,22,24,29-decaen-8-yl]acetic acid] the same measures were 150 nM and 2.02 nM.
For the molecule `Cc1c(Cl)cc2cc1CN1Cc3cc(ccc3OS1(=O)=O)OCCCCn1nnc3c(C)c(ccc31)C2CC(=O)O` (single isomer, unassigned) [Example 33a, [5-Chloro-4,31-dimethyl-27,27-dioxo-21,26-dioxa-27λ^6-thia-1,14,15,16-tetraazahexacyclo[20.5.3.1^3,70.1^9,130.0^12,160.0^25,29]dotriaconta-3(32),4,6,9(31),10,12,14,22,24,29-decaen-8-yl]acetic acid], in assay [1] (setting [2]), the EC50 is 94.5 nM. In addition, the Kd on Keap1 (A321-C624) (h) was determined as 4.55 nM.
For `Cc1c(Cl)cc2cc1CN1Cc3cc(ccc3OS1(=O)=O)OCCCCn1nnc3c(C)c(ccc31)C2CC(=O)O` (single isomer, unassigned) [Example 33b, [5-Chloro-4,31-dimethyl-27,27-dioxo-21,26-dioxa-27λ^6-thia-1,14,15,16-tetraazahexacyclo[20.5.3.1^3,70.1^9,130.0^12,160.0^25,29]dotriaconta-3(32),4,6,9(31),10,12,14,22,24,29-decaen-8-yl]acetic acid] the same measures were 894 nM and 9.29 nM.
Turning to `COc1cc2cc(c1OC)CN1Cc3cc(ccc3OS1(=O)=O)OCCCCn1nnc3c(C)c(ccc31)C2CC(=O)O` (single isomer, unassigned) [Example 35a, [4,5-Dimethoxy-31-methyl-27,27-dioxo-21,26-dioxa-27λ^6-thia-1,14,15,16-tetraazahexacyclo[20.5.3.1^3,70.1^9,130.0^12,160.0^25,29]dotriaconta-3(32),4,6,9(31),10,12,14,22,24,29-decaen-8-yl]acetic acid], the EC50 in assay [1] (setting [3]) was over 3160 nM. Besides, the Kd on Keap1 (A321-C624) (h) amounted to 33600 nM.
